The results in this text go back to US7271162B2, “Cycloocta[b][1,4]diazepino[6,7,1-hi]indoles and derivatives” (Wyeth, priority 2000, dated 2007).

For series [1], the target named is T1, human 5-hydroxytryptamine2C (h5HT2C) receptor (Homo sapiens, UniProt P28335).
T1 construct: expressed in transfected cells; host or cells: CHO (Chinese Hamster Ovary) cells; membrane preparation
T1 sequence (P28335 33-458): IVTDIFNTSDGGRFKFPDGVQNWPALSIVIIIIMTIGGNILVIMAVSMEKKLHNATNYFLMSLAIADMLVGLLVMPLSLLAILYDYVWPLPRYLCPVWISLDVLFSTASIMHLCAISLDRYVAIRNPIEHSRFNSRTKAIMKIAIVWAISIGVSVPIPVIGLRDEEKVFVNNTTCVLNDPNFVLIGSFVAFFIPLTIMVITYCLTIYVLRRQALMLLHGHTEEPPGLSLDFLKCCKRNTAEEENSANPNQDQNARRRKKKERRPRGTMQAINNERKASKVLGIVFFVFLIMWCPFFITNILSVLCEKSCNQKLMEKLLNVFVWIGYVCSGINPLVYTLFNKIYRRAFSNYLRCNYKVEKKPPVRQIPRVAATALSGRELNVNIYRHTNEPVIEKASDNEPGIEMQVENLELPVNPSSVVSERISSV
As to the kind of experiment: 5HT2C Receptor Binding Test Procedure ([125I] DOI displacement, membranes of transfected CHO cells).

The target of series [2] is T2, human 5-HT2C receptor (Homo sapiens, UniProt P28335).
T2 sequence (P28335 33-458): T1 sequence (P28335 33-458)
As to the kind of experiment: Stimulation of [3H] Inositol Monophosphate Production by 5HT2C Agonists in transfected CHO cells. The note with it: read-out: 5HT2C Stimulation of IP3 % Emax (5HT, 100%).
Procedure: One (1) ml of maintenance medium containing 1 μCi/ml myo-[^3H] inositol was added to each well. After 48 hours labeling, the cells were washed once with 0.5 ml DMEM containing 25 mM HEPES and 10 mM LiCl, then preincubated with the medium for 30 min (antagonists were included in this period if tested). At the end of the preincubation, the medium was removed, the cells were then incubated with test compounds (in presence of antagonists if needed) for 30 min. The reaction was terminated by removal of the incubation solution and addition of 0.5 ml ice-cold 5% PCA, followed by 15 to 30 min incubation on ice. 200 μl of 0.5 M Tes/1.5 M K2CO3 was added to each well to neutralize to pH 7, and plates were left on ice for another 15 to 30 min to precipitate all salts. The liquid and solid phases were separated by centrifugation.
A portion (350 μl) of the upper aqueous phase was applied to Dowex AG-1X8 (formate form, 100-200 mesh) columns. The columns were then washed stepwise with 10 ml of water and 10 ml of 25 mM ammonium formate to remove free myo-[^3H]inositol and deacylated phosphoinositol, respectively. Finally 10 ml of 0.2 M ammonium formate solution was applied to the columns to elute [^3H] inositol monophosphate ([^3H] IP1) directly into scintillation vials. Of this eluate, 1 ml was used to determine radioactivity by scintillation counting. […]

Molecules are shown by their SMILES. Counter-ions that a name gives are not always drawn. Like-named read-outs stand apart in the source and are kept apart here.

With `CSc1ccc2c(c1)C(N1CCN(C)CC1)Cc1ccccc1S2` (stereo not drawn) [Methiothepin], in series [1] (reference compounds, [125I] DOI binding, h5HT2C CHO membranes, read-out: Ki value and 95% confidence interval), the Ki (usually a dissociation constant, usually derived from enzyme kinetics or from competition with a known ligand) amounted to 4.6 nM.
For the compound `c1cc2c3c(c1)c1c(n3CCNC2)CCCCCC1` [Example 1, 1,2,3,4,8,9,10,11,12,13-Decahydrocycloocta[b][1,4]diazepino[6,7,1-hi]indole], the maximal effect (Emax) (as a rule, the maximal effect, on the per cent scale that the assay sets) in series [2] stood at 120%.
On to `c1cc2c3c(c1)c1c(n3CCNC2)CCCCCC1` (as salt: hydrochloride) [Example 1, 1,2,3,4,8,9,10,11,12,13-Decahydrocycloocta[b][1,4]diazepino[6,7,1-hi]indole], for which the melting point (commonly the temperature of the solid-liquid transition) was 316 to 318 °C.
With `c1cc2c3c(c1)C1CCCCCCC1N3CCNC2` (stereo not drawn) [Example 2, 1,2,3,4,7b,8,9,10,11,12,13,13a-Dodecahydrocycloocta[b][1.4]diazepino[6,7,1-hi]indole], the melting point lay within 58 to 63 °C. In series [1], the affinity, expressed as Ki, was 65 nM.
In the case of `COc1cc(CC(C)N)c(OC)cc1I` (stereo not drawn) [[^125I] DOI], the equilibrium dissociation constant (Kd) (in general, a measure of binding affinity in units of concentration) in series [1] (read-out: dissociation constant, KD of [125I] DOI at the human serotonin 5HT2C receptor, saturation binding with increasing concentrations of [125I] DOI) was determined as 0.4 nM.
